Results published in patent US5215769A, “Calcium fortified dressing salad product” (The Procter & Gamble Company, priority 1992, dated 1993).

Experiments:
[1] = physchem
From the text: The exact method for determining this is described hereinafter.
The method of solubility used to determine the data in Table I, is described in the Analytical Methods section below.

[2] = Bioavailability of calcium citrate malate (statement); conditions: even under neutral conditions

Compound | solubility [1] [mg/mL] | bioavailability [2]
O=C(O)CC(O)C(=O)O (racemic) [calcium malate] | 660 | 
calcium citrate malate |  | bioavailable
